Data: patent publication US20250304635A1, “BIRINAPANT POLYMORPH H” (Medivir AB, priority 2022, published 2025)

What was measured:
Format in all cases: physicochemical
[1] = Stability studies under elevated temperature and relative humidity; crystalline form by XRPD, birefringence by polarized light microscopy
Experimental: XRPD patterns were collected with a PANalytical Empyrean diffractometer using an incident beam of Cu radiation produced using a long, fine-focus source. An elliptically graded multilayer mirror was used to focus Cu Kα X-rays through the specimen and onto the detector. Prior to analysis, a silicon specimen (NIST SRM 640e) was analyzed to verify the observed position of the Si 111 peak is consistent with the NIST-certified position. A specimen of the sample was sandwiched between 3-μm-thick films and analyzed in transmission geometry. A beam-stop, short antiscatter extension, and antiscatter knife edge were used to minimize the background generated by air. Soller slits for the incident and diffracted beams were used to minimize broadening and asymmetry from axial divergence. Diffraction patterns were collected using a scanning position-sensitive detector (X′Celerator) located 240 mm from the specimen and Data Collector software v. 5.5. Additional stability studies under elevated temperature and relative humidity (RH) conditions were also performed. Samples of birinapant form H were subjected to various temperature and humidity conditions for up to 105 days, and samples were taken at 17, 33, and 105 days. For each sample the identity of the crystalline form of the sample was assessed using XRPD and the birefringence of the sample was assessed using polarized light microscopy. Additionally, XRPD patterns for several time points are provided for the 60° C. study, the 30° C./62% RH study, and the 40° C./75% RH study in FIGS. 6, 7, and 8, respectively. The time points shown are at the start of the study (top pattern), after 17 days (pattern second from top), after 33 days (pattern third from top), and after 105 days (bottom pattern). Additional stability studies under elevated temperature and relative humidity (RH) conditions were also performed. Samples of birinapant form H were subjected to various temperature and humidity conditions for up to 182 days, and samples were taken at […]. For each sample the identity of the crystalline form of the sample was assessed using XRPD and the birefringence of the sample was assessed using polarized light microscopy. The “RESULT” column indicates the form that was observed. Additionally, XRPD patterns for several time points are provided for the 60° C. study, the 30° C./62% RH study, and the 40° C./75% RH study in FIG. 9. The spectra shown in FIG. 9 correspond to the 60° C. study after 33 days (top trace), the 60° C. study after 182 days (trace second from top), the 30° C./62% RH study after 33 days (trace third from top), the 30° C./62% RH study after 182 days (trace fourth from top), the 40° C./75% RH study after 33 days (trace fifth from top), and the 40° C./75% RH study after 182 days (trace sixth from top). A representative XRPD trace for birinapant form H prior to stressing is also shown for comparison (bottom trace).

[2] = Dynamic vapor sorption (DVS) study; design: Hysteresis: unit not given here; conditions: 25° C.
Experimental: Automated vapor sorption (VS) data were collected on a Surface Measurement System DVS Intrinsic instrument. Samples were not dried prior to analysis. Sorption and desorption data were collected over a range from 5% to 95% RH at 10% RH increments under a nitrogen purge. The equilibrium criterion used for analysis was less than 0.0100% weight change in 5 minutes with a maximum equilibration time of 3 hours. Data were not corrected for the initial moisture content of the samples. This study was performed at a temperature of 25° C., and the relative humidity was cycled between about 5% and about 95%.

[3] = Stability study: material left open to air at room temperature and exposed to light for one month (HPLC, Karl Fischer); conditions: room temperature, exposed to light
Experimental: A stability study of birinapant form H was performed by leaving the material open to air at room temperature and exposed to light for one month. […] A stability study of birinapant form H was performed by leaving the material open to air at room temperature and exposed to light for one month.

[4] = TGA study; conditions: between about 25° C. and 300° C.
Experimental: TGA analysis was performed using a Mettler-Toledo TGA/DSC3 analyzer. Temperature and enthalpy adjustments were performed using indium, tin, and zinc, and then verified with indium. The balance was verified with calcium oxalate. The sample was placed in an open aluminum pan. The pan was hermetically sealed, the lid pierced, and then inserted into the TG furnace. A weighed aluminum pan configured as the sample pan was placed on the reference platform. The furnace was heated under nitrogen. Each sample was heated from ambient temperature to 350° C. at 10° C./min. The thermograms were plotted by reference temperature (x-axis) and results were reported according to sample temperatures. Briefly, a sample of biripant Form H was heated from about 25° C. to about 400° C. […] Between about 340° C. and 400° C., weight loss was observed, corresponding to the thermal decomposition of birinapant.

[5] = Stability studies under elevated temperature and relative humidity; crystalline form by XRPD, birefringence by polarized light microscopy; remark: listed apart in the source
[6] = target RH 95.0%, sample RH 95.7%

SMILES: CC[C@H](NC(=O)[C@H](C)NC)C(=O)N1C[C@@H](O)C[C@H]1Cc1c(-c2[nH]c3cc(F)ccc3c2C[C@@H]2C[C@H](O)CN2C(=O)[C@H](CC)NC(=O)[C@H](C)NC)[nH]c2cc(F)ccc12 [birinapant Form H, (2S,2'S)—N,N′-((2S,2'S)-((3S,3'S,5R,5′R)-((6,6′-difluoro-1H,1′H-[2,2′-biindole]-3,3′-diyl)bis(methylene))bis(3-hydroxypyrrolidine-5,1-diyl))bis(1-oxobutane-1,2-diyl))bis(2-(methylamino)propanamide)]
- Observation ([1]; 30° C., 62% RH, 17 d, B = birefringence): fines, B
- Observation ([1]; 30° C., 62% RH, 105 d, B = birefringence): white fines, B
- Observation ([1]; 40° C., 75% RH, 17 d, B = birefringence): fines, B
- Observation ([1]; 40° C., 75% RH, 33 d): white solids
- Observation ([1]; 40° C., 75% RH, 105 d, B = birefringence): white fines, B
- Observation ([1]; 60° C., 17 d, B = birefringence): fines, B
- Observation ([1]; 60° C., 33 d): white to off-white in color
- Observation ([1]; 60° C., 105 d): off-white
- Observation ([1]; 80° C., 17 d, B = birefringence): fines, B sample faint pale yellow
- Observation ([1]; 80° C., 33 d): pale yellow in color
- Observation ([1]; RT, 98% RH, 18 d, B = birefringence): fines, B sample faint pale yellow
- Observation ([1]; Table 5: 30° C., 62% RH, 17 d, B = birefringence): fines, B
- Observation ([1]; Table 5: 30° C., 62% RH, 105 d, B = birefringence): white fines, B
- Observation ([1]; Table 5: 30° C., 62% RH, 182 d, power outage 1 hour on day 125): white solids^d
- Observation ([1]; Table 5: 40° C., 75% RH, 17 d, B = birefringence): fines, B
- Observation ([1]; Table 5: 40° C., 75% RH, 33 d): white solids
- Observation ([1]; Table 5: 40° C., 75% RH, 105 d, B = birefringence): white fines, B
- Observation ([1]; Table 5: 40° C., 75% RH, 182 d, power outage 1 hour on day 125): white solids^e
- Observation ([1]; Table 5: 60° C., 17 d, B = birefringence): fines, B
- Observation ([1]; Table 5: 60° C., 33 d): white to off-white in color
- Observation ([1]; Table 5: 60° C., 105 d): off-white
- Observation ([1]; Table 5: 60° C., 182 d, temperature excursions: 105° C. 3 hours on day 113, power outage 1 hour on day 125): off-white to pale yellow^c
- Observation ([1]; Table 5: 80° C., 17 d, B = birefringence): fines, B sample faint pale yellow
- Observation ([1]; Table 5: 80° C., 33 d): pale yellow in color
- Observation ([1]; Table 5: RT, 53% RH, 18 d, B = birefringence): fines, B sample faint pale yellow
- Observation ([1]; Table 5: RT, 98% RH, 18 d, B = birefringence): fines, B sample faint pale yellow
- Cycle 1 Sorp Mass Change ([2]; target RH 5.0%, sample RH 5.1%): 0.000%
- Cycle 1 Desorp Mass Change ([2]; target RH 5.0%, sample RH 5.5%): 0.020%
- Hysteresis ([2]; target RH 15.0%): 0.192
- Cycle 1 Sorp Mass Change ([2]; target RH 15.0%, sample RH 15.6%): 0.365%
- Cycle 1 Desorp Mass Change ([2]; target RH 15.0%, sample RH 16.1%): 0.557%
- Hysteresis ([2]; target RH 25.0%): 0.197
- Cycle 1 Sorp Mass Change ([2]; target RH 25.0%, sample RH 25.1%): 0.732%
- Cycle 1 Desorp Mass Change ([2]; target RH 25.0%, sample RH 25.6%): 0.929%
- Hysteresis ([2]; target RH 35.0%): 0.237
- Cycle 1 Sorp Mass Change ([2]; target RH 35.0%, sample RH 34.7%): 1.001%
- Cycle 1 Desorp Mass Change ([2]; target RH 35.0%, sample RH 35.3%): 1.238%
- Hysteresis ([2]; target RH 45.0%): 0.308
- Cycle 1 Sorp Mass Change ([2]; target RH 45.0%, sample RH 45.0%): 1.224%
- Cycle 1 Desorp Mass Change ([2]; target RH 45.0%, sample RH 45.6%): 1.532%
- Hysteresis ([2]; target RH 55.0%): 0.379
- Cycle 1 Sorp Mass Change ([2]; target RH 55.0%, sample RH 54.7%): 1.436%
- Cycle 1 Desorp Mass Change ([2]; target RH 55.0%, sample RH 55.4%): 1.815%
- Hysteresis ([2]; target RH 65.0%): 0.425
- Cycle 1 Sorp Mass Change ([2]; target RH 65.0%, sample RH 64.7%): 1.652%
- Cycle 1 Desorp Mass Change ([2]; target RH 65.0%, sample RH 65.5%): 2.078%
- Hysteresis ([2]; target RH 75.0%): 0.428
- Cycle 1 Sorp Mass Change ([2]; target RH 75.0%, sample RH 74.7%): 1.908%
- Cycle 1 Desorp Mass Change ([2]; target RH 75.0%, sample RH 75.3%): 2.336%
- Hysteresis ([2]; target RH 85.0%): 0.347
- Cycle 1 Sorp Mass Change ([2]; target RH 85.0%, sample RH 84.9%): 2.263%
- Cycle 1 Desorp Mass Change ([2]; target RH 85.0%, sample RH 86.0%): 2.610%
- Cycle 1 Desorp Mass Change [2, 6]: 2.904%
- Cycle 1 Sorp Mass Change [2, 6]: 2.904%
- appearance of the surface of the solid [3]: discolored slightly
- purity of birinapant by HPLC after storage [3]: 99.9%
- weight loss on heating (TGA) [4]: No weight loss
- Observation ([5]; 245° C., 1 hr): light tan solids
- Observation ([5]; RT, 53% RH, 18 d, B = birefringence): fines, B sample faint pale yellow
- Observation ([5]; Table 5: 245° C., 1 hr): light tan solids
